# From US12570641B2, “Solid forms of a CDK4 inhibitor” (Pfizer Inc., priority 2020, dated 2026)
# Legend:
# Type in all cases: physicochemical
# [1] = Moisture sorption (hygroscopicity), water sorption and desorption
# Method: Water sorption and desorption studies were conducted on an automated vapor sorption analyzer (TA instruments Q5000 SA). The microbalance was calibrated using a 100 mg standard weight. The relative humidity (RH) sensor was calibrated at 5.0, 11.3, 32.8, 52.8, 75.3, and 84.3% RH (25° C.) using saturated salt solutions. Approximately 10-20 mg of the powder sample was placed in the quartz sample holder and dried at 3% RH at 60° C. The attainment of equilibrium was assumed when the weight change of the sample was <0.001 wt % in 5 min or by a maximum equilibration time of 300 minutes. […] Again, the attainment of equilibrium was assumed when the weight change of the sample was <0.001 wt % in 5 min or by a maximum equilibration time of 300 minutes. The weight gain at 60% RH is based on the weight after the initial drying step.
# Water sorption and desorption studies of PF-07220060 monohydrate (Form 2), prepared as described in Example 2, were conducted according to General Method 6.
# Water sorption and desorption studies of PF-07220060 hydrate (Form 1), prepared as described in Example 5B, were conducted according to General Method 6.
# Comparative hygroscopicity experiments were performed using moisture sorption analysis according to General Method 6. PF-07220060 Forms 1, 2, 6, and 8 were evaluated using moisture sorption at 25° C., 60% RH. A form change at the completion of the run was not detected for any of the forms by PXRD.
# [2] = Solid form of control and stressed samples by powder X-ray diffraction
# Method: Powder X-ray diffraction analysis was conducted using a Bruker AXS D8 Endeavor diffractometer equipped with a copper radiation source. The divergence slit was set at 15 mm continuous illumination. Diffracted radiation was detected by a PSD-Lynx Eye detector, with the detector PSD opening set at 2.99 degrees. The X-ray tube voltage and amperage were set to 40 kV and 40 mA respectively. Data was collected at the copper (Cu) wavelength (CuKα=[…]) in the Theta-Theta goniometer from 3.0 to 40.0 degrees 2-Theta. A step size of 0.01 degrees and a step time of 1.0 second was used for Form 2, Form 6 and Form 8. A step size of 0.02 degrees and a step time of 0.3 seconds was used for Form 11. The antiscatter screen was set to a fixed distance of 1.5 mm. Samples were rotated during data collection. Samples were prepared by placing them in a silicon low background sample holder and rotated during collection. Data were collected using Bruker DIFFRAC Plus software and analysis was performed by EVA diffract plus software.
# Powder X-ray diffraction was used to assess the solid form of the control and the stressed samples.
# [3] = Thermal stability by Differential Scanning Calorimetry (DSC)
# Method: Modulated Differential scanning calorimetry (DSC) measurements were performed with Discovery DSC (TA instruments) equipped with a refrigerated cooling accessory. All the experiments were performed in standard/Tzero aluminum pans. The cell constant was determined using indium and temperature calibration was performed using indium and tin as standards. All the measurements were done under continuous dry nitrogen purge (50 mL/min). Approximately 1-5 mg of solid sample was weighed into a Tzero aluminum pan, sealed non-hermetically and heated from −40° C. to 220° C. at 10° C./min heating rate. The experimental data were analyzed using commercially available software (TA Universal Analysis 2000/Trios software, TA Instruments).
# (§1) Thermal stability data were obtained through thermogravimetric analysis (TGA) according to General Method 4, and Differential Scanning Calorimetry (DSC) scan according to General Method 5A.
# [4] = Competitive slurry experiments in 2-propanol/1% water; conditions: based on the competition slurry experiments
# Method: Competitive slurry experiments were performed between Form 1 and Form 2 (Entry 1), and between Form 6 and Form 2 (Entry 2), in 2-propanol/1% water. Entry 1: […] The solids were collected with vacuum filtration and analyzed with PXRD. PXRD data was consistent with PF-07220060 monohydrate (Form 2). Entry 2: […] The solids were collected with vacuum filtration and analyzed with PXRD. PXRD data was consistent with PF-07220060 monohydrate (Form 2).
# [5] = Thermal stability by thermogravimetric analysis (TGA); conditions: listed as Form 2 (monohydrate), monohydrate
# Method: Thermogravimetric analysis was conducted using a Discovery TGA (TA instruments) thermogravimetric analyzer. Samples of approximately 10 mg were weighed into aluminum pans and heated from ambient ([…]) to 250° C. at 10° C./minute heating rate under nitrogen purge (10 mL/min for both sample chamber and balance).
# as §1
# [6] = Accelerated solid state chemical/humidity stability by UPLC; conditions: for % impurity RRT 0.89 / % impurity RRT 1.31: UPLC
# Method: Accelerated solid state chemical stability and photostability of PF-07220060 monohydrate (Form 2) was investigated. Solid state chemical/humidity stability of PF-07220060 monohydrate (Form 2) was evaluated by UPLC (ultra performance liquid chromatography) analysis after storage at 70° C./5% RH and 70° C./75% RH for one week, and at 40° C./5% RH and 40° C./75% RH for 6 weeks. The percentage of identified impurity peaks at the indicated RRT (relative retention time) values were determined under the challenge conditions versus a control sample stored at ambient temperature. RRT is calculated by dividing the retention time (RT) of the impurity by the RT of Form 2. Data at 70° C./5% RH and 70° C./75% RH for one week are provided in Table 14 and Table 15, respectively.
# [7] = control sample stored at ambient temperature
# [8] = stressed samples: 70° C./75% RH and 70° C./5% RH for one week, 40° C./75% RH and 40° C./5% RH for 6 weeks
smiles,measurement,setting,value
"CC(C)n1c(C(C)(C)O)nc2c(F)cc(-c3nc(N[C@@H]4CCOC[C@H]4O)ncc3Cl)cc21 [Form 2, 1,5-anhydro-3-({5-chloro-4-[4-fluoro-2-(2-hydroxypropan-2-yl)-1-(propan-2-yl)-1H-benzimidazol-6-yl]pyrimidin-2-yl}amino)-2,3-dideoxy-D-threo-pentitol monohydrate]",form change at the completion of the moisture sorption run by PXRD,"[1]; 25° C., 60% RH",not detected
same,Weight gain (%),"[1]; 25 °C, RH 0%, listed as PF-07220060 monohydrate (Form 2), monohydrate",0.00%
same,Weight gain (%),"[1]; 25 °C, RH 10%, desorption, listed as PF-07220060 monohydrate (Form 2), monohydrate",0.54%
same,Weight gain (%),"[1]; 25 °C, RH 10%, sorption, listed as PF-07220060 monohydrate (Form 2), monohydrate",0.45%
same,Weight gain (%),"[1]; 25 °C, RH 20%, desorption, listed as PF-07220060 monohydrate (Form 2), monohydrate",0.55%
same,Weight gain (%),"[1]; 25 °C, RH 20%, sorption, listed as PF-07220060 monohydrate (Form 2), monohydrate",0.49%
same,Weight gain (%),"[1]; 25 °C, RH 30%, desorption, listed as PF-07220060 monohydrate (Form 2), monohydrate",0.56%
same,Weight gain (%),"[1]; 25 °C, RH 30%, sorption, listed as PF-07220060 monohydrate (Form 2), monohydrate",0.51%
same,Weight gain (%),"[1]; 25 °C, RH 40%, desorption, listed as PF-07220060 monohydrate (Form 2), monohydrate",0.57%
same,Weight gain (%),"[1]; 25 °C, RH 40%, sorption, listed as PF-07220060 monohydrate (Form 2), monohydrate",0.52%
same,Weight gain (%),"[1]; 25 °C, RH 50%, desorption, listed as PF-07220060 monohydrate (Form 2), monohydrate",0.58%
same,Weight gain (%),"[1]; 25 °C, RH 50%, sorption, listed as PF-07220060 monohydrate (Form 2), monohydrate",0.54%
same,Weight gain (%),"[1]; 25 °C, RH 60%, desorption, listed as PF-07220060 monohydrate (Form 2), monohydrate",0.60%
same,Weight gain (%),"[1]; 25 °C, RH 60%, sorption, listed as PF-07220060 monohydrate (Form 2), monohydrate",0.56%
same,Weight gain (%),"[1]; 25 °C, RH 70%, desorption, listed as PF-07220060 monohydrate (Form 2), monohydrate",0.60%
same,Weight gain (%),"[1]; 25 °C, RH 70%, sorption, listed as PF-07220060 monohydrate (Form 2), monohydrate",0.57%
same,Weight gain (%),"[1]; 25 °C, RH 80%, desorption, listed as PF-07220060 monohydrate (Form 2), monohydrate",0.61%
same,Weight gain (%),"[1]; 25 °C, RH 80%, sorption, listed as PF-07220060 monohydrate (Form 2), monohydrate",0.59%
same,Weight gain (%),"[1]; 25 °C, RH 90%, listed as PF-07220060 monohydrate (Form 2), monohydrate",0.62%
same,Weight gain (%),"[1]; 60 °C, RH 0% (initial drying step)",0.00%
same,"Weight Gain (%) at 25° C., 60% RH","[1]; comparative summary of Forms 1, 2, 6 and 8, monohydrate",<1%
same,hygroscopicity relative to Form 8 and Form 1,"[1]; moisture sorption at 25° C., 60% RH",reduced hygroscopicity
same,solid form change by PXRD,[2]; 40° C./5% RH for six weeks,disorder
same,solid form change by PXRD,[2]; 40° C./75% RH for six weeks,No form change was detected
same,solid form change by PXRD,[2]; 70° C./5% RH for one week,Slight disorder
same,solid form change by PXRD,[2]; 70° C./75% RH for one week,No form change was detected
same,thermal stability relative to Form 1 and Form 8,[3]; TGA and DSC,improved thermal stability
same,Thermal stability via DSC (° C.),"[3]; listed as Form 2 (monohydrate), monohydrate",50 °C
same,relative humidity above which the form is thermodynamically stable,[4],above 15 % RH
same,Thermal stability via TGA (° C.),[5],60 °C
same,% impurity RRT 0.89,[6]; 70° C./5% RH (one week),0.57%
same,% impurity RRT 1.31,[6]; 70° C./5% RH (one week),0.99%
same,% impurity RRT 0.89,[6]; 70° C./75% RH (one week),0.58%
same,% impurity RRT 1.31,[6]; 70° C./75% RH (one week),1.00%
same,% impurity RRT 0.89,[6]; [7],0.57%
same,% impurity RRT 1.31,[6]; [7],1.00%
same,change in appearance compared to the control sample,[6]; [8],No significant change in appearance
same,growth of individual impurities,[6]; [8],≤ 0.2%
same,total impurities,[6]; [8],≤ 2.0%
